Measurements published in patent publication US20020082270A1, “Aminoquinazolines which inhibit signal transduction mediated by tyrosine kinases” (priority 2000, published 2002).

Target: T1, human EGF-R (Homo sapiens, UniProt P00533)
T1 construct: expressed in transfected cells; host or cells: F/L-HERc cells: murine IL-3-dependent FDC-P1 cells transduced with retroviral vector LXSN carrying human EGF-R cDNA (packaging line GP+E86)
Assay: Inhibition of EGF-dependent proliferation of F/L-HERc cells
Assay type: cell-based
Conditions: F/L-HERc cells (murine IL-3-dependent line expressing human EGF-R), stimulated with EGF 20 ng/ml, 48 hours, Cell Titer 96 AQueous assay
Excerpt: A cell line of murine origin dependent on interleukin-3-(IL-3) which was genetically modified to express functional human EGF-R was used here. The proliferation of these cells known as F/L-HERc can therefore be stimulated either by murine IL-3 or by EGF (cf. von Rüden, T. et al. in EMBO J. 7, 2749-2756 (1988) and Pierce, J. H. et al. in Science 239, 628-631 (1988)).
The starting material used for the F/L-HERc cells was the cell line FDC-P1, the production of which has been described by Dexter, T. M. et al. in J. Exp. Med. 152, 1036-1047 (1980). Alternatively, however, other growth-factor-dependent cells may also be used (cf. for example Pierce, J. H. et al. in Science 239, 628-631 (1988), Shibuya, H. et al. in Cell 70, 57-67 (1992) and Alexander, W. S. et al. in EMBO J. 10, 3683-3691 (1991)). […]
In order to determine the inhibitory activity of the compounds according to the invention the relative cell number was measured in O.D. units using the Cell Titer 96™ AQueous Non-Radioactive Cell Proliferation Assay (Promega). […]

T1 sequence (P00533 25-1210): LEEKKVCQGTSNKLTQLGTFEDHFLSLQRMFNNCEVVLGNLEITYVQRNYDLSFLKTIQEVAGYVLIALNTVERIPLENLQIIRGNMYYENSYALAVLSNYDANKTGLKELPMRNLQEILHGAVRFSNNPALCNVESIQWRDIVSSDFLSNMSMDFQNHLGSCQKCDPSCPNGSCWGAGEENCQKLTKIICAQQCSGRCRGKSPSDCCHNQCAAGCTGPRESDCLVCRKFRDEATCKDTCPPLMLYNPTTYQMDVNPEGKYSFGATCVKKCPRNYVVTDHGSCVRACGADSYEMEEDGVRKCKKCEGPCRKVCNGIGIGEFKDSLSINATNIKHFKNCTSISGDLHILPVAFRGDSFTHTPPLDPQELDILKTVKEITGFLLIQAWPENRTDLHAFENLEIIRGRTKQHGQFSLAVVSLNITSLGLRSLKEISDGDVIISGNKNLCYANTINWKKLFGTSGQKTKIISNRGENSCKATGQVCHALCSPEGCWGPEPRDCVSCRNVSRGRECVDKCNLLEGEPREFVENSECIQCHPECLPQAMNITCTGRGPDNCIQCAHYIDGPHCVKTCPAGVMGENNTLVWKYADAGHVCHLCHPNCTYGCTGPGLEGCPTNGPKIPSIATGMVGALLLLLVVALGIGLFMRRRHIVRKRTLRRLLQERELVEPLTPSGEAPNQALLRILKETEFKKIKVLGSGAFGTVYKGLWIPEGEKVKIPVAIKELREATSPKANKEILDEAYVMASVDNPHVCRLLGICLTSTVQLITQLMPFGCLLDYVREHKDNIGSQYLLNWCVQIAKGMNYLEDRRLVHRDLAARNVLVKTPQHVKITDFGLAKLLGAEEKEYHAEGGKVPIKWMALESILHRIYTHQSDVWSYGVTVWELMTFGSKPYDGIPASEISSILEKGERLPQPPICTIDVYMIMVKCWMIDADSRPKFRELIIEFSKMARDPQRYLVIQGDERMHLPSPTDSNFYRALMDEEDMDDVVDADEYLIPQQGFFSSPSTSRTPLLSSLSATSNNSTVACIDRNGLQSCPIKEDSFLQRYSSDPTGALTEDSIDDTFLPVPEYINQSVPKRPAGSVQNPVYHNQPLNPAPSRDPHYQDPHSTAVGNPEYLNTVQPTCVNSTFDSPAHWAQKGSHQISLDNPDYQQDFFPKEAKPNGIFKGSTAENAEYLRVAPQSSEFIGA

Compound: C=CC(=O)Nc1cc2c(N[C@H](C)c3ccccc3)ncnc2cc1OCCN1CCN(C2COC(=O)C2)CC1 (stereo partly drawn) [1 (2), 4-[(R)-(1-phenylethyl)amino]-7-{2-[4-(2-oxo-tetrahydrofuran-4-yl)-piperazin-1-yl]-ethoxy}-6-[(vinylcarbonyl)amino]-quinazoline]
- IC50: 12 nM
